Non-standard residues stand in square brackets, D forms with d. Residues, ends and D or L forms follow the SMILES beside them. *: point of attachment. tBuAla = CC(C)(C)C[C@H](N)C(=O)O; Tic = O=C(O)[C@@H]1Cc2ccccc2CN1; Cha = N[C@@H](CC1CCCCC1)C(=O)O; Tle = CC(C)(C)[C@H](N)C(=O)O; Abu = CC[C@H](N)C(=O)O; Cbz = O=C(OCc1ccccc1)*; Bn = c1ccc(C*)cc1; tBu = CC(C)(C)*
These molecules were tested against T1, Calpain-1 catalytic subunit (Homo sapiens, UniProt P07384) (assay: Inhibitory activity evaluated against recombinant human calpain 1).
T1 sequence (P07384 whole entry): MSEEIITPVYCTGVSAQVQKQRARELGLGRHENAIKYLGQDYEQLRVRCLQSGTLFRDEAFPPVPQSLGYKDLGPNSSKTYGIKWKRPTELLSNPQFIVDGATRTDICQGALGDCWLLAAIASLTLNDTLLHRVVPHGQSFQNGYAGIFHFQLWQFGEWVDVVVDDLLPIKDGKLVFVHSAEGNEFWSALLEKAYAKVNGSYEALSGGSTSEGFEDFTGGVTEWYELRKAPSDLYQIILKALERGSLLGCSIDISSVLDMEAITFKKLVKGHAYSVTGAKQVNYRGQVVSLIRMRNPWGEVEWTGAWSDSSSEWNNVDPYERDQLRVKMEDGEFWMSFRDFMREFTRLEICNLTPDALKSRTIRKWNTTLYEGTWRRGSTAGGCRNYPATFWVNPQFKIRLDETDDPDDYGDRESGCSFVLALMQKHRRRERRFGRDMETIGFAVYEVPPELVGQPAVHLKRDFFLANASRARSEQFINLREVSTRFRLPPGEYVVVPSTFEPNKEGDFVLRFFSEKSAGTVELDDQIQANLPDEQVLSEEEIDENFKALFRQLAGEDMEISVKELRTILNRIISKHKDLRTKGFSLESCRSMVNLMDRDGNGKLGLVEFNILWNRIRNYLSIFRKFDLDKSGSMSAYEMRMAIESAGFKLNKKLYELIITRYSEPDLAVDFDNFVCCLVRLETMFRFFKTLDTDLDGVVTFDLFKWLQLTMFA

| IC50 [nM] | SMILES |
| --- | --- |
| 40 | CC(C)C[C@@H](C=O)NC(=O)[C@H](CC(C)C)NC(=O)[C@H](CCC(=O)O)NC(=O)OCc1ccccc1 (Cbz-Glu-Leu-Leu-aldehyde) |
| 17 | CC(C)C[C@@H](C=O)NC(=O)[C@H](CC(C)C)NC(=O)[C@H](CC(C)C)NC(=O)[C@H](Cc1c[nH]cn1)NC(=O)OCc1ccccc1 (Cbz-HLLL-aldehyde) |
| 41 | CC[C@H](C)[C@H](NC(=O)OCc1ccccc1)C(=O)N[C@H](C=O)CC(C)C (Cbz-Ile-Leu-aldehyde) |
| 90 | CC(C)C[C@@H](C=O)NC(=O)[C@H](C)NC(=O)[C@H](CC(C)C)NC(=O)OCc1ccccc1 (Cbz-Leu-Ala-Leu-aldehyde) |
| 120 | CC(C)C[C@H](NC(=O)OCc1ccccc1)C(=O)N[C@@H](C)C=O (Cbz-Leu-Ala-aldehyde) |
| 1200 | CC(C)C[C@@H](C=O)NC(=O)[C@H](CCC(=O)O)NC(=O)[C@H](CC(C)C)NC(=O)OCc1ccccc1 (Cbz-Leu-Glu-Leu-aldehyde) |
| ~10000 | CC(C)C[C@@H](C=O)NC(=O)CNC(=O)[C@H](CC(C)C)NC(=O)OCc1ccccc1 (Cbz-Leu-Gly-Leu-aldehyde) |
| 300 | CC(C)C[C@H](NC(=O)OCc1ccccc1)C(=O)NCC=O (Cbz-Leu-Gly-aldehyde) |
| 15 | CC(C)C[C@H](NC(=O)OCc1ccccc1)C(=O)N[C@H](C=O)Cc1cnc[nH]1 (Cbz-Leu-His-aldehyde) |
| 19 | CC(C)C[C@@H](C=O)NC(=O)[C@H](CC(C)C)NC(=O)[C@H](CC(C)C)NC(=O)OCc1ccccc1 (Cbz-Leu-Leu-Leu-aldehyde) |
| ~10000 | CC(C)C[C@@H](C=O)NC(=O)[C@H](CCCCN)NC(=O)[C@H](CC(C)C)NC(=O)OCc1ccccc1 (Cbz-Leu-Lys-Leu-aldehyde) |
| 33 | CSCC[C@@H](C=O)NC(=O)[C@H](CC(C)C)NC(=O)OCc1ccccc1 (Cbz-Leu-Met-aldehyde) |
| 68 | CC(C)C[C@@H](C=O)NC(=O)[C@H](Cc1ccccc1)NC(=O)[C@H](CC(C)C)NC(=O)OCc1ccccc1 (Cbz-Leu-Phe-Leu-aldehyde) |
| 10 | CC(C)C[C@H](NC(=O)OCc1ccccc1)C(=O)N[C@H](C=O)Cc1ccccc1 (Cbz-Leu-Phe-aldehyde) |
| 45 | CC(C)C[C@@H](C=O)NC(=O)[C@H](Cc1c[nH]c2ccccc12)NC(=O)[C@H](CC(C)C)NC(=O)OCc1ccccc1 (Cbz-Leu-Trp-Leu-aldehyde) |
| 7 | CC(C)C[C@H](NC(=O)OCc1ccccc1)C(=O)N[C@H](C=O)Cc1ccc(OCc2ccccc2)cc1 (Cbz-Leu-Tyr(Bn)-aldehyde) |
| 4 | CC(C)C[C@H](NC(=O)OCc1ccccc1)C(=O)N[C@H](C=O)C(C)C (Cbz-Leu-Val-aldehyde) |
| 10 | CC[C@@H](C=O)NC(=O)[C@H](CC(C)C)NC(=O)OCc1ccccc1 (Cbz-Leu-[Abu]-aldehyde) |

| IC50 [nM] | SMILES |
| --- | --- |
| 11 | CC(C)C[C@H](NC(=O)OCc1ccccc1)C(=O)N[C@H](C=O)CC1CCCCC1 (Cbz-Leu-[Cha]-aldehyde) |
| 35 | CC(C)C[C@H](NC(=O)OCc1ccccc1)C(=O)N[C@H](C=O)C(C)(C)C (Cbz-Leu-[Tle]-aldehyde) |
| 20 | CC(C)C[C@@H](C=O)NC(=O)[C@H](CC(C)C)NC(=O)[C@H](CCCCN)NC(=O)OCc1ccccc1 (Cbz-Lys-Leu-Leu-aldehyde) |
| 11 | CC(C)C[C@@H](C=O)NC(=O)[C@H](CC(C)C)NC(=O)[C@H](Cc1ccccc1)NC(=O)OCc1ccccc1 (Cbz-Phe-Leu-Leu-aldehyde) |
| 230 | CC(C)C[C@@H](C=O)NC(=O)[C@H](Cc1ccccc1)NC(=O)OCc1ccccc1 (Cbz-Phe-Leu-aldehyde) |
| 12 | CC(C)C[C@@H](C=O)NC(=O)[C@H](CC(C)C)NC(=O)[C@H](COC(C)(C)C)NC(=O)OCc1ccccc1 (Cbz-Ser(tBu)-Leu-Leu-aldehyde) |
| 530 | CC(C)C[C@@H](C=O)NC(=O)[C@H](CO)NC(=O)OCc1ccccc1 (Cbz-Ser-Leu-aldehyde) |
| 120 | CC(C)C[C@@H](C=O)NC(=O)[C@H](Cc1c[nH]c2ccccc12)NC(=O)OCc1ccccc1 (Cbz-Trp-Leu-aldehyde) |
| 8 | CC(C)C[C@@H](C=O)NC(=O)[C@H](CC(C)C)NC(=O)[C@H](Cc1ccc(O)cc1)NC(=O)OCc1ccccc1 (Cbz-Tyr-Leu-Leu-aldehyde) |
| > 1000 | CC(C)C[C@@H](C=O)NC(=O)[C@H](Cc1ccc(O)cc1)NC(=O)OCc1ccccc1 (Cbz-Tyr-Leu-aldehyde) |
| 29 | CC(C)C[C@@H](C=O)NC(=O)[C@@H](NC(=O)OCc1ccccc1)C(C)C (Cbz-Val-Leu-aldehyde) |
| 31 | CC(C)C[C@@H](C=O)NC(=O)[C@H](Cc1ccccc1)NC(=O)[C@@H](NC(=O)OCc1ccccc1)C(C)C (Cbz-Val-Phe-Leu-aldehyde) |
| 580 | CC(C)C[C@@H](C=O)NC(=O)[C@H](CC1CCCCC1)NC(=O)OCc1ccccc1 (Cbz-[Cha]-Leu-aldehyde) |
| 15 | CC(C)C[C@@H](C=O)NC(=O)[C@H](CC(C)C)NC(=O)[C@@H]1Cc2ccccc2CN1C(=O)OCc1ccccc1 (Cbz-[Tic]-Leu-Leu-aldehyde) |
| 4 | CC(C)C[C@@H](C=O)NC(=O)[C@@H](NC(=O)OCc1ccccc1)C(C)(C)C (Cbz-[Tle]-Leu-aldehyde) |
| 140 | CC(C)C[C@@H](C=O)NC(=O)[C@H](CC(C)(C)C)NC(=O)OCc1ccccc1 (Cbz-[tBuAla]-Leu-aldehyde) |
| 23 | CSCCC(C=O)NC(=O)C(CC(C)C)NC(=O)[C@H](CC(C)C)NC(C)=O (single isomer, unassigned) |
| 5 | CCCC[C@@H](C=O)NC(=O)[C@H](CC(C)C)NC(=O)OCc1ccccc1 [CALPEPTIN] |

Reference: ChEMBL document CHEMBL1130294, “Subsite requirements for peptide aldehyde inhibitors of human calpain I” (Bioorg Med Chem Lett, 1997)
